According to US20080194462A1, “Methods and Compositions for Treatment of Autoimmune Diseases” (Peptimmune, Inc., priority 2004, published 2008):

Legend:
[1] = test system: Non-obese diabetic (NOD) mouse; assay: Treatment of NOD mice, development of diabetes; format: in vivo; conditions: 10 μg injected three times a week
Method: NOD mice are obtained from Jackson Laboratories, Bar Harbor, Me., and are used as an experimental system (Shi et al. (2001) Proc. Natl. Acad. Sci. USA 98: 6777-6782). These mice begin to develop diabetes at about 13-15 weeks and data are obtained after about 30 weeks to obtain data, such as a frequency of symptoms for comparison of treated and untreated groups of mice. NOD mice were treated herein with Copaxone®, and no difference was found between the untreated animals and animals treated with Copaxone®. In the experiment, 10 μg of Copaxone® was injected into mice three times a week (equivalent to the human dose on a weight ratio basis. A higher dose, 33 μg Copaxone®/mouse three times a week, is also employed. These experiments test the hypothesis that Copaxone® would be ineffective.

T cells = conditions: cited from earlier work

Glatiramer acetate
difference between untreated and treated NOD mice (diabetes) [1]: no difference | proportion of an individual's T cells activated (T cells; HLA-DR restricted): 15-20% | T cell response generated through HLA-DQ molecules (T cells): little response
